{"source": "patent US7781393B2", "about": "“Methods for inhibiting tumor cell growth” (Dana-Farber Cancer Institute, Inc., priority 2004, dated 2010)", "key": {"BM stromal cells (BMSCs)": {"tested_on": "BM stromal cells (BMSCs)", "test": "Viability of bone marrow stromal cells (MTT)", "format": "cell-based, human", "conditions": "0.5 μM", "description": "Primary MM patient samples were freshly isolated from bone marrow aspirates from patients undergoing diagnostic or restaging bone marrow aspirates under an IRB-approved protocol. MM cells were purified using custom-made RosetteSep cocktail of monoclonal antibodies (mAb's) (StemCell Technologies Inc, Vancouver, Canada) for negative selection of CD138^+ MM cells. The CD138^− fraction of the MM cell purification process was cultured in 20% FBS-supplemented media for isolation of the adherent bone marrow stromal cells. Peripheral blood B cells were isolated by ficoll-density centrifugation of peripheral blood samples from MM patients. […] […] At the end of each treatment, cells were incubated with 1 mg/ml MTT for 4 hours at 37° C.; a mixture of isopropanol and 1N HCl (23:2, v/v) was then added under vigorous pipetting to dissolve the formazan crystals. Dye absorbance (A) in viable cells was measured at 570 nm, with 630 nm as a reference wavelength. Cell survival was estimated as a percentage of the value of untreated controls. All experiments were repeated at least three times, and each experimental condition was repeated at least in quadruplicate wells in each experiment."}, "peripheral blood B-cells": {"tested_on": "peripheral blood B-cells", "test": "Viability of peripheral blood B-cells", "format": "cell-based, human", "conditions": "0.5 μM", "description": "Primary MM patient samples were freshly isolated from bone marrow aspirates from patients undergoing diagnostic or restaging bone marrow aspirates under an IRB-approved protocol. MM cells were purified using custom-made RosetteSep cocktail of monoclonal antibodies (mAb's) (StemCell Technologies Inc, Vancouver, Canada) for negative selection of CD138^+ MM cells. The CD138^− fraction of the MM cell purification process was cultured in 20% FBS-supplemented media for isolation of the adherent bone marrow stromal cells. Peripheral blood B cells were isolated by ficoll-density centrifugation of peripheral blood samples from MM patients.\nTo assess whether MM cells are more susceptible to inhibition of IGF-1R signaling, than normal cells in their immediate environment, primary MM cells, normal bone marrow stromal cells and peripheral blood B-cells, were exposed to 0.5 μM NVP-AEW541."}, "MM1S-LucNeo cells": {"tested_on": "MM1S-LucNeo cells", "test": "Orthotopic mouse model of multiple myeloma, bioluminescence imaging", "format": "in vivo", "conditions": "50 mg/kg PO BID, after 8 days of treatment, p=0.58", "description": "MM1S-LucNeo cells were created by transducing MM1S cells with a retrovirus encoding the firefly luciferase coding region fused to neomycin phosphotransferase (pMMP-LucNeo). Transduced cells were selected by growth in medium (RPMI, 10% FBS, penicillin/streptomycin) containing G418 at an effective concentration of 1 mg/ml.\nNOD-SCID mice (Jackson Laboratory) were sublethally irradiated with 300 rads from a ^137CS source. Three hours after irradiation, a total of 5×10^6 MM1S-LucNeo cells in mid-logarithmic growth phase were injected via tail vein into each mouse in a volume of 300 μL of PBS. Mice were maintained under sterile conditions.\nBioluminescence imaging was performed with a Xenogen In Vivo Imaging System (IVIS 100). Mice were anesthetized by IP injection of ketamine 150 mg/kg and xylazine 12 mg/kg, and simultaneously D-luciferin 50 mg/kg was administered by IP injection. Imaging was performed 15 minutes after D-luciferin injection with a setting of 2 minutes, and a bin setting of 2. Mice were allowed to recover under isothermic conditions. Mice were imaged weekly beginning 2 weeks after tumor inoculation. Mice with increasing tumor burden were divided into 2 statistically equivalent cohorts, and treatment was started 4 weeks after tumor inoculation. […]"}}}
{"smiles": "Nc1ncnc2c1c(-c1cccc(OCc3ccccc3)c1)cn2[C@H]1C[C@@H](CN2CCC2)C1", "note": "[NVP-AEW541]", "values": [{"measurement": "viability of bone marrow stromal cells", "setting": "BM stromal cells (BMSCs)", "result": "no effect on the viability"}, {"measurement": "viability of peripheral blood B-cells", "setting": "peripheral blood B-cells", "result": "no effect on the viability"}, {"measurement": "body weight", "setting": "MM1S-LucNeo cells", "result": "no difference in body weight"}]}
